Test results as given in patent publication US20260125382A1, “COMPOUNDS FOR INHIBITING OR DEGRADING CDK2 AND/OR CDK9 AND MEDICINAL USE THEREOF” (KOREA RESEARCH INSTITUTE OF CHEMICAL TECHNOLOGY, priority 2022, published 2026).

Tests used:
CDK2 = target: T1, CDK2 (Homo sapiens, UniProt P24941); test: CDK protein degradation activity (Western blotting), CDK2; type: cell-based; conditions: MDA-MB-231 cells, 16 hours, Western blot
T1 construct: endogenous in cells; host or cells: MDA-MB-231
Method in brief: (§1)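 Seed MDA-MB-231 cells; next day add compound to 100 nM, 1 μM or 10 μM final, or DMSO. After 16 h, harvest and lyse in Triton X-100 buffer, run SDS-PAGE, probe for CDK2, CDK9 and tubulin.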

CDK9 = target: T2, CDK9 (Homo sapiens, UniProt P50750); test: CDK protein degradation activity (Western blotting), CDK9; type: cell-based; conditions: MDA-MB-231 cells, 16 hours, Western blot
T2 construct: endogenous in cells; host or cells: MDA-MB-231
T2 sequence (P50750 whole entry): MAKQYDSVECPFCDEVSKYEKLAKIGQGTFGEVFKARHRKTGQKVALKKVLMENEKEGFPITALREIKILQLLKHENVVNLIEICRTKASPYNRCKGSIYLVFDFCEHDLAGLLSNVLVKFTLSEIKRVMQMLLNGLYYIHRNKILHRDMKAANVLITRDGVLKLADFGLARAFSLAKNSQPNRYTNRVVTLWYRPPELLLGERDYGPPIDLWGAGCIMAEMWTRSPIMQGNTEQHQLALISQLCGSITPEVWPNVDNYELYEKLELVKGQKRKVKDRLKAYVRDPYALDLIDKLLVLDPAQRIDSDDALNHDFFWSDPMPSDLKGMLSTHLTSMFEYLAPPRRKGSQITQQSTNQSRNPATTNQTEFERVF
Method in brief: as §1

| Enzyme degradation CDK2 (% remaining) @ 0.1 μM (CDK2) | Enzyme degradation CDK2 (% remaining) @ 1 μM (CDK2) | Enzyme degradation CDK2 (% remaining) @ 10 μM (CDK2) | Enzyme degradation CDK9 (% remaining) @ 0.1 μM (CDK9) | Enzyme degradation CDK9 (% remaining) @ 1 μM (CDK9) | Enzyme degradation CDK9 (% remaining) @ 10 μM (CDK9) | Structure (SMILES) |
| --- | --- | --- | --- | --- | --- | --- |
| 10% | 20% | 40% | 30% | 0% | 0% | O=C1CC[C@@H](c2cccc(OCC(=O)N3CCC(CN4CCN(c5ccc(Nc6ncnc7c6ncn7C6CC(NC(=O)Cc7ccccc7)C6)cc5)CC4)CC3)c2)C(=O)N1 (stereo partly drawn) [Compound 225, N-((1s,3s)-3-(6-((4-(4-((1-(2-(3-(2,6-dioxopiperidin-3-yl)phenoxy)acetyl)piperidin-4-yl)methyl)piperazin-1-yl)phenyl)amino)-9H-purin-9-yl)cyclobutyl)-2-phenylacetamide] |
| 40% | 30% | 40% | 0/0/0% | 0/0/0% | 0/0/0% | O=C1CC[C@@H](c2cccc(OCC(=O)N3CCC4(CC3)CC(N3CCN(c5ccc(Nc6ncnc7c6ncn7C6CC(NC(=O)Cc7ccccc7)C6)cc5)CC3)C4)c2)C(=O)N1 (stereo partly drawn) [Compound 226, N-((1s,3s)-3-(6-((4-(4-(7-(2-(3-(2,6-dioxopiperidin-3-yl)phenoxy)acetyl)-7-azaspiro[3.5]nonan-2-yl)piperazin-1-yl)phenyl)amino)-9H-purin-9-yl)cyclobutyl)-2-phenylacetamide] |
| 50% | 20% | 70% | 60% | 70% | 10% | O=C1CC[C@@H](c2cccc(OCC(=O)N3CCC(CC(=O)N4CCN(c5ccc(Nc6ncnc7c6ncn7[C@H]6C[C@@H](NC(=O)Cc7ccccc7)C6)cc5)CC4)CC3)c2)C(=O)N1 [Compound 227, N-((1s,3s)-3-(6-((4-(4-(2-(1-(2-(3-(2,6-dioxopiperidin-3-yl)phenoxy)acetyl)piperidin-4-yl)acetyl)piperazin-1-yl)phenyl)amino)-9H-purin-9-yl)cyclobutyl)-2-phenylacetamide] |
| 70% | 90% | 100% | 20% | 10% | 0% | Cc1cccc(C(=O)NC2CC(n3cnc4c(NCCCN5CCN(CC6CCN(C(=O)COc7ccc([C@@H]8CCC(=O)NC8=O)cc7)CC6)CC5)ncnc43)C2)n1 (stereo partly drawn) [Compound 229, N-((1s,3s)-3-(6-((3-(4-((1-(2-(4-(2,6-dioxopiperidin-3-yl)phenoxy)acetyl)piperidin-4-yl)methyl)piperazin-1-yl)propyl)amino)-9H-purin-9-yl)cyclobutyl)-6-methylpicolinamide] |
| 50% | 50% | 80% | 30% | 10% | 0% | Cc1cccc(C(=O)N[C@H]2C[C@@H](n3cnc4c(NCCCN5CCN(CC6CCN(C(=O)COc7cccc([C@@H]8CCC(=O)NC8=O)c7)CC6)CC5)ncnc43)C2)n1 [Compound 230, N-((1s,3s)-3-(6-((3-(4-((1-(2-(3-(2,6-dioxopiperidin-3-yl)phenoxy)acetyl)piperidin-4-yl)methyl)piperazin-1-yl)propyl)amino)-9H-purin-9-yl)cyclobutyl)-6-methylpicolinamide] |
| 50% | 60% | 40% | 20% | 0% | 0% | O=C1CC[C@H](N2C(=O)c3cccc(NCC(=O)N4CCN(CCCN5CCN(c6ccc(Nc7ncnc8c7ncn8[C@H]7C[C@@H](NC(=O)Cc8ccccc8)C7)cc6)CC5)CC4)c3C2=O)C(=O)N1 [Compound 231, N-((1s,3s)-3-(6-((4-(4-(3-(4-((2-(2,6-dioxopiperidin-3-yl)-1,3-dioxoisoindolin-4-yl)glycyl)piperazin-1-yl)propyl)piperazin-1-yl)phenyl)amino)-9H-purin-9-yl)cyclobutyl)-2-phenylacetamide] |
| 60% | 20% | 20% | 90% | 10% | 0% | O=C1CCC(N2C(=O)c3cccc(OCC(=O)N4CCN(CCCN5CCN(c6ccc(Nc7ncnc8c7ncn8[C@H]7C[C@@H](NC(=O)Cc8ccccc8)C7)cc6)CC5)CC4)c3C2=O)C(=O)N1 (stereo partly drawn) [Compound 232, N-((1s,3s)-3-(6-((4-(4-(3-(4-(2-((2-(2,6-dioxopiperidin-3-yl)-1,3-dioxoisoindolin-4-yl)oxy)acetyl)piperazin-1-yl)propyl)piperazin-1-yl)phenyl)amino)-9H-purin-9-yl)cyclobutyl)-2-phenylacetamide] |
| 80% | 80% | 70% | 40% | 0% | 0% | O=C1CC[C@H](N2C(=O)c3ccc(NCC(=O)N4CCN(CCCN5CCN(c6ccc(Nc7ncnc8c7ncn8C7CC(NC(=O)Cc8ccccc8)C7)cc6)CC5)CC4)cc3C2=O)C(=O)N1 (stereo partly drawn) [Compound 233, N-((1s,3s)-3-(6-((4-(4-(3-(4-((2-(2,6-dioxopiperidin-3-yl)-1,3-dioxoisoindolin-5-yl)glycyl)piperazin-1-yl)propyl)piperazin-1-yl)phenyl)amino)-9H-purin-9-yl)cyclobutyl)-2-phenylacetamide] |
| 100% | 80% | 70% | 60% | 40% | 0% | O=C1CC[C@H](N2C(=O)c3ccc(OCC(=O)N4CCN(CCCN5CCN(c6ccc(Nc7ncnc8c7ncn8[C@H]7C[C@@H](NC(=O)Cc8ccccc8)C7)cc6)CC5)CC4)cc3C2=O)C(=O)N1 [Compound 234, N-((1s,3s)-3-(6-((4-(4-(3-(4-(2-((2-(2,6-dioxopiperidin-3-yl)-1,3-dioxoisoindolin-5-yl)oxy)acetyl)piperazin-1-yl)propyl)piperazin-1-yl)phenyl)amino)-9H-purin-9-yl)cyclobutyl)-2-phenylacetamide] |
| 50/50/50% | 50/50/50% | 50/50/50% | 20% | 0% | 0% | O=C1CC[C@@H](c2ccc(OCC(=O)N3CCN(CCCN4CCN(c5ccc(Nc6ncnc7c6ncn7C6CC(NC(=O)Cc7ccccc7)C6)cc5)CC4)CC3)cc2)C(=O)N1 (stereo partly drawn) [Compound 236, N-((1s,3s)-3-(6-((4-(4-(3-(4-(2-(4-(2,6-dioxopiperidin-3-yl)phenoxy)acetyl)piperazin-1-yl)propyl)piperazin-1-yl)phenyl)amino)-9H-purin-9-yl)cyclobutyl)-2-phenylacetamide] |
| 10% | 0% | 0% | 20% | 0% | 0% | O=C1CC[C@@H](c2cccc(OCC(=O)N3CCN(CCCN4CCN(c5ccc(Nc6ncnc7c6ncn7C6CC(NC(=O)Cc7ccccc7)C6)cc5)CC4)CC3)c2)C(=O)N1 (stereo partly drawn) [Compound 237, N-((1s,3s)-3-(6-((4-(4-(3-(4-(2-(3-(2,6-dioxopiperidin-3-yl)phenoxy)acetyl)piperazin-1-yl)propyl)piperazin-1-yl)phenyl)amino)-9H-purin-9-yl)cyclobutyl)-2-phenylacetamide] |
| 100% | 80% | 50% | 70% | 20% | 0% | O=C1CC[C@H](N2C(=O)c3cccc(N4CCN(CCCN5CCN(c6ccc(Nc7ncnc8c7ncn8C7CC(NC(=O)Cc8ccccc8)C7)cc6)CC5)CC4)c3C2=O)C(=O)N1 (stereo partly drawn) [Compound 238, N-((1s,3s)-3-(6-((4-(4-(3-(4-(2-(2,6-dioxopiperidin-3-yl)-1,3-dioxoisoindolin-4-yl)piperazin-1-yl)propyl)piperazin-1-yl)phenyl)amino)-9H-purin-9-yl)cyclobutyl)-2-phenylacetamide] |
| 100% | 20% | 20% | 70% | 0% | 0% | O=C1CCC(N2C(=O)c3ccc(N4CCN(CCCN5CCN(c6ccc(Nc7ncnc8c7ncn8[C@H]7C[C@@H](NC(=O)Cc8ccccc8)C7)cc6)CC5)CC4)cc3C2=O)C(=O)N1 (stereo partly drawn) [Compound 239, N-((1s,3s)-3-(6-((4-(4-(3-(4-(2-(2,6-dioxopiperidin-3-yl)-1,3-dioxoisoindolin-5-yl)piperazin-1-yl)propyl)piperazin-1-yl)phenyl)amino)-9H-purin-9-yl)cyclobutyl)-2-phenylacetamide] |
